“Also recorded” adds a separate entry of the source.

The text below walks through data of US20240366624A1, “METHODS AND COMPOSITIONS FOR TREATING THROMBOTIC DISEASE” (Washington University, priority 2023, published 2024).

One test deals with Ero1α-null platelets. In words: Platelet aggregation, Ero1α-null platelets. The format is cell-based, mouse. As for the experimental part: FIG. 7(A-L) is an exemplary embodiment of crucial intracellular ERO1α (endoplasmic reticulum oxidoreductase 1a) for platelet activation, aggregation, and thrombus formation in accordance with the present disclosure. FIG. 7A: Ex vivo platelet thrombus formation in a flow chamber assay. Adherent and aggregated platelets were stained with rhodamine-conjugated phalloidin and imaged by confocal microscopy. Representative images (bar, 10 μm). Surface coverage and thrombus volume were measured (mean±SD, n=4). FIG. 7(B-E): Aggregation and ATP secretion of wild type (WT) and Ero1α-null platelets were induced by 0.025 U/mL thrombin, 0.05 μg/mL CRP (collagen-related peptide), 0.5 μM A23187, or 2.5 μM ADP. Platelet aggregation (i) and ATP secretion (ii). FIG. 7F: Ero1α-null platelets were pretreated with 50 μg/mL wtERO1α or wtPDI and then with 0.025 U/mL thrombin. Quantification graphs of aggregation and ATP secretion are presented as the mean±SD (n=3-4). FIG. 7G and FIG. 7H: P-selectin exposure and αIIbβ3 integrin activation of WT and Ero1α-null platelets were analyzed by flow cytometry. The data are presented as the geometric mean fluorescence intensity (MFI) value (mean±SD, n=3-4). FIG. 7I: WT and Ero1α-null platelets were treated with or without 0.025 U/mL thrombin for 1 minute in an aggregometer. The lysates were immunoprecipitated with control IgG or anti-β3 antibodies and subjected to immunoblotting with antibodies against talin1 or β3 and densitometric analysis (mean±SD, n=3). FIG. 7J: WT and Ero1α-null platelets were treated with or without 0.025 U/mL thrombin, followed by transmission electron microscopy. The original magnification was 34 800, and the extension was 313 000. Bar, 500 nm. FIG. 7K and FIG. 7L: Intravital microscopy was performed to determine the effect of 15E9 (1-3 μg/g body weight [BW]) and a blocking anti-PDI (protein disulfide isomerase) antibody (BD34, 3 μg/g BW) on platelet thrombus formation and fibrin generation at the site of laser-induced cremaster arteriolar injury (n=27-40 arterioles in 6 mice per group). The n indicates biological replicates. P values determined by unpaired Student t test (FIG. 7(A-E) and FIG. 7(G-1)), ANOVA and Dunnett test (FIG. 7F), or Mann-Whitney U test (FIG. 7K and FIG. 7L).
FIG. 9(A-C) is an exemplary embodiment of EN460 inhibiting thrombin-induced aggregation of mouse and human platelets in accordance with the present disclosure. […] P values determined by ANOVA and Dunnett's test (FIG. 9(A-B)) or Student's t-test (FIG. 9C).
FIG. 10(A-E) is an exemplary embodiment of 15E9 not affecting platelet activation and aggregation in accordance with the present disclosure. […] P values determined by unpaired Student's t-test (vs. mIgG1). […]

Another test has as its system WT mouse platelets. In words: Platelet aggregation, WT mouse platelets. The format is cell-based. How it is done:
FIG. 9(A-C) is an exemplary embodiment of EN460 inhibiting thrombin-induced aggregation of mouse and human platelets in accordance with the present disclosure. (A) Human (FIG. 9A), WT (FIG. 9B), and Ero1α-null (FIG. 9C) platelets were pretreated with EN460, an ERO1α inhibitor, at 1, 3, or 10 μM, and treated with 0.025 U/ml thrombin to induce platelet aggregation. The data represent the mean±SD (n=3). P values determined by ANOVA and Dunnett's test (FIG. 9(A-B)) or Student's t-test (FIG. 9C).
FIG. 10(A-E) is an exemplary embodiment of 15E9 not affecting platelet activation and aggregation in accordance with the present disclosure. […] P values determined by unpaired Student's t-test (vs. mIgG1).
FIG. 18(A-R) is an exemplary embodiment of novel small-molecule inhibitors recapitulating the defect in Ero1α (endoplasmic reticulum oxidoreductase 1a)-null platelets in accordance with the present disclosure. […] After incubation with a different concentration of B12-5, the specific interaction between B12-5 and ERO1α was measured by subtracting the nonspecific binding. The KD value was calculated from the Kon and Koff values. […] P values determined by ANOVA and Dunnett test (FIG. 18(B-E), FIG. 18(1-L), and FIG. 18(O-R) [for B12-5]) or Student t test (FIG. 18M, FIG. 18N, and FIG. 18(O-R) [for BAPTA (1,2-bis(o-aminophenoxy)ethane-N,N,N′,N′-tetraacetic acid)]).

As for `O=C(CSc1nc(O)cc(O)n1)N1c2ccccc2Sc2ccccc21` [B12-5], the Ero1α-null platelet aggregation result in the test with Ero1α-null platelets (10 μM / up to 10 μM) is “without affecting; also recorded: did not show an additional effect”. The “thrombin- or CRP-induced WT platelet aggregation” value in the test with WT mouse platelets (10 μM) is recorded as “significantly mitigated”.

Consider `O=C(O)c1cc(N2N=C(C(F)(F)F)/C(=C/c3ccc(-c4ccccc4)o3)C2=O)ccc1Cl` [EN460], for which the results for the Ero1α-null platelet aggregation entry in the test on Ero1α-null platelets (3 μM) and in the test on Ero1α-null platelets (3 to 10 μM) were “abolished; also recorded: completely blocked” and “significantly inhibited”, respectively. For the same compound, in the test on WT mouse platelets (3 to 10 μM, mouse platelets), the thrombin-induced aggregation result is given as “abrogated”.
